Structures can show the parent of a compound that is named as a salt.
Experiments:
PAXF1657 KO Clone #4 = experiment: 7-day cellular proliferation assay (CellTiter-Glo), PAXF1657 KO Clone #4; assay type: cell-based; settings: proliferation, read-out: GeoMean IC50 (uM) PAXF1657 KO Clone #4
How it was run: (§1)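 PAXF1657 pancreatic cancer cells (GRK2-overexpressing vs empty vector; CRISPR GRK2 knockout vs non-targeting control) were seeded at 500 cells/well in RPMI1640/10% FBS, then given a 10-point series, 30 μM-0.0002 μM in 0.3% DMSO. Medium and compound were refreshed after 3 days; CellTiter-Glo luminescence was read at day 7.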

GRK2 [1] = biological target: T1, GRK2 (Homo sapiens, UniProt P25098); experiment: GRK2 Inhibition Assay (TR-FRET, Example 1); assay type: biochemical; settings: Table 4; Example 1 assay; read-out: Enzymatic GRK2 IC50: Av IC50 GRK2
T1 sequence (P25098 1-689): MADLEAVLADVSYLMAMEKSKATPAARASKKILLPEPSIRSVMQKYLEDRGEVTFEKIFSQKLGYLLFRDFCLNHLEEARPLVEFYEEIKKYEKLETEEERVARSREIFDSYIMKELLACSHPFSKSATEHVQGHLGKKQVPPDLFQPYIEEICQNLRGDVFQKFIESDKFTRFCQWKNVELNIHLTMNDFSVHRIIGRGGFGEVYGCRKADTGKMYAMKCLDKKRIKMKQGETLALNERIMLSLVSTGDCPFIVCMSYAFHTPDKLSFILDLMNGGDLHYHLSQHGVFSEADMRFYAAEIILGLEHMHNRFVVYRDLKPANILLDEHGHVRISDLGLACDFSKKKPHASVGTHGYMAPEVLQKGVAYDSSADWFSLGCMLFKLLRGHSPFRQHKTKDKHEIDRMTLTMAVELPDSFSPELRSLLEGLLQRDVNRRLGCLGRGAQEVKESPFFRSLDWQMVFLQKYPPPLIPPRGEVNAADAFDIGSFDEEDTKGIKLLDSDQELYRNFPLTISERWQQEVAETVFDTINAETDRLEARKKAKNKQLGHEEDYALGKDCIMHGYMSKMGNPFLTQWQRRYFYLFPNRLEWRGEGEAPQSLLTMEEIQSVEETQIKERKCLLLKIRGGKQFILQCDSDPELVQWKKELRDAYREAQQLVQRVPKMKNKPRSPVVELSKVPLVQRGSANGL
How it was run: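 GRK2 (1 nM) pre-incubated 30 min RT with compounds in HEPES/MgCl2/DTT/Tween-20/EGTA buffer, then reacted 90 min RT with 7 μM ATP and 50 nM ULight-TopoIIα substrate. Stopped with EDTA plus Eu anti-TopoIIα antibody; TR-FRET read after 60 min.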

PAXF1657 EV = experiment: 7-day cellular proliferation assay (CellTiter-Glo), PAXF1657 EV; assay type: cell-based; settings: proliferation, read-out: GeoMean IC50 (UM) PAXF1657 EV
How it was run: as §1

GRK2 [2] = biological target: T1, GRK2; experiment: GRK2 Degradation Assay and Western Blot in PAXF1657 cells; assay type: cell-based; set-up: endogenous in cells; host or cells: PAXF1657; settings: read-out: Degradation Assay - 3 point: Degradation (%); for inhibition at 0.3 µM: Conc 0.3 uM; for inhibition at 1 µM: Conc 1 uM; for inhibition at 3 µM: Conc 3 uM
How it was run: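 PAXF1657 cells grown to 70% confluency, then treated with compounds at 0–10 μM for 6 to 24 h at 37 °C. Lysates in PBS with 1% NP40 run on SDS-PAGE. GRK2 protein detected by western blot with β-actin as loading reference, using ECL chemiluminescence.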

IC50 (GRK2 [1])	inhibition at 0.3 µM (GRK2 [2])	inhibition at 1 µM (GRK2 [2])	inhibition at 3 µM (GRK2 [2])	SMILES	IC50 (PAXF1657 KO Clone #4)	IC50 (PAXF1657 EV)
12 nM	63.6%	50.2%	28.3%	C[C@@H](NC(=O)c1cccc(NCc2nnc(-c3ccncn3)n2C)c1)c1ccc(OCCN2CCN(c3ccc4c(c3)CN(C3CCC(=O)NC3=O)C4=O)CC2)cc1 (stereo partly drawn) [Compound D174, N-((1R)-1-(4-(2-(4-(2-(2,6-dioxopiperidin-3-yl)-1-oxoisoindolin-5-yl)piperazin-1-yl)ethoxy)phenyl)ethyl)-3-((4-methyl-5-(pyrimidin-4-yl)-4H-1,2,4-triazol-3-yl)methylamino)benzamide hydrochloride]	> 30 µM	< 0.458 nM
24.1 nM	33%	24.4%	10.7%	C[C@@H](NC(=O)c1cccc(NCc2nnc(-c3ccncn3)n2C)c1)c1cccc(OCC(=O)N2CCN(c3ccc4c(c3)CN(C3CCC(=O)NC3=O)C4=O)CC2)c1 (stereo partly drawn) [Compound D176, N-((1R)-1-(3-(2-(4-(2-(2,6-dioxopiperidin-3-yl)-1-oxoisoindolin-5-yl)piperazin-1-yl)-2-oxoethoxy)phenyl)ethyl)-3-((4-methyl-5-(pyrimidin-4-yl)-4H-1,2,4-triazol-3-yl)methylamino)benzamide]	> 30 µM	8020 nM
10.2 nM	13.2%	20.9%	36.8%	C[C@@H](NC(=O)c1cccc(NCc2nnc(-c3ccncn3)n2C)c1)c1ccc(OCC(=O)N2CCN(c3ccc4c(c3)CN(C3CCC(=O)NC3=O)C4=O)CC2)cc1 (stereo partly drawn) [Compound D177, N-((1R)-1-(4-(2-(4-(2-(2,6-dioxopiperidin-3-yl)-1-oxoisoindolin-5-yl)piperazin-1-yl)-2-oxoethoxy)phenyl)ethyl)-3-((4-methyl-5-(pyrimidin-4-yl)-4H-1,2,4-triazol-3-yl)methylamino)benzamide]	> 30 µM	27000 nM
24.9 nM	36.7%	78.1%	86%	C[C@@H](NC(=O)c1cccc(NCc2nnc(-c3ccncn3)n2C)c1)c1cccc(OCCCCCCOCCOCCOCCCCCC(=O)N2CCN(c3ccc4c(c3)CN(C3CCC(=O)NC3=O)C4=O)CC2)c1 (stereo partly drawn) [Compound D191, N-((1R)-1-(3-((6-(2-(2-((6-(4-(2-(2,6-dioxopiperidin-3-yl)-1-oxoisoindolin-5-yl)piperazin-1-yl)-6-oxohexyl)oxy)ethoxy)ethoxy)hexyl)oxy)phenyl)ethyl)-3-(((4-methyl-5-(pyrimidin-4-yl)-4H-1,2,4-triazol-3-yl)methyl)amino)benzamide]	> 30 µM	320 nM

Continued, compound first:

SMILES	IC50 (GRK2 [1])	inhibition at 0.3 µM (GRK2 [2])	inhibition at 1 µM (GRK2 [2])	inhibition at 3 µM (GRK2 [2])	IC50 (PAXF1657 KO Clone #4)	IC50 (PAXF1657 EV)
C[C@@H](NC(=O)c1cccc(NCc2nnc(-c3ccncn3)n2C)c1)c1ccc(OCCCCN2CCN(c3ccc4c(c3)CN(C3CCC(=O)NC3=O)C4=O)CC2)cc1 (stereo partly drawn) [Compound D175, N-((1R)-1-(4-(4-(4-(2-(2,6-dioxopiperidin-3-yl)-1-oxoisoindolin-5-yl)piperazin-1-yl)butoxy)phenyl)ethyl)-3-((4-methyl-5-(pyrimidin-4-yl)-4H-1,2,4-triazol-3-yl)methylamino)benzamide hydrochloride]	10.3 nM	87.7%	89.2%	82.8%	> 30 µM	< 0.458 nM
C[C@@H](NC(=O)c1cccc(NCc2nnc(-c3ccncn3)n2C)c1)c1cccc(OCCCCCCOCCOCCOCCCC(=O)N2CCN(c3cc4c(cc3F)C(=O)N(C3CCC(=O)NC3=O)C4=O)CC2)c1 (stereo partly drawn) [Compound D178, N-((1R)-1-(3-((6-(2-(2-(4-(4-(2-(2,6-dioxopiperidin-3-yl)-6-fluoro-1,3-dioxoisoindolin-5-yl)piperazin-1-yl)-4-oxobutoxy)ethoxy)ethoxy)hexyl)oxy)phenyl)ethyl)-3-(((4-methyl-5-(pyrimidin-4-yl)-4H-1,2,4-triazol-3-yl)methyl)amino)benzamide]	11.6 nM	45%	72%	84%	> 30 µM	310 nM
C[C@@H](NC(=O)c1cccc(NCc2nnc(-c3ccncn3)n2C)c1)c1cccc(OCCCCCCOCCOCCOCCCC(=O)N2CCN(c3ccc4c(c3)CN(C3CCC(=O)NC3=O)C4=O)CC2)c1 (stereo partly drawn) [Compound D179, N-((1R)-1-(3-((6-(2-(2-(4-(4-(2-(2,6-dioxopiperidin-3-yl)-1-oxoisoindolin-5-yl)piperazin-1-yl)-4-oxobutoxy)ethoxy)ethoxy)hexyl)oxy)phenyl)ethyl)-3-(((4-methyl-5-(pyrimidin-4-yl)-4H-1,2,4-triazol-3-yl)methyl)amino)benzamide]	6.36 nM	58%	82%	88%	> 30 µM	140 nM
C[C@@H](NC(=O)c1cccc(NCc2nnc(-c3ccncn3)n2C)c1)c1cccc(OCCCCCOCCCOCC(=O)N2CCN(c3cc4c(cc3F)C(=O)N(C3CCC(=O)NC3=O)C4=O)CC2)c1 (stereo partly drawn) [Compound D180, N-((1R)-1-(3-((5-(3-(2-(4-(2-(2,6-dioxopiperidin-3-yl)-6-fluoro-1,3-dioxoisoindolin-5-yl)piperazin-1-yl)-2-oxoethoxy)propoxy)pentyl)oxy)phenyl)ethyl)-3-(((4-methyl-5-(pyrimidin-4-yl)-4H-1,2,4-triazol-3-yl)methyl)amino)benzamide]	7.31 nM	43%	74%	85%	> 30 µM	820 nM
C[C@@H](NC(=O)c1cccc(NCc2nnc(-c3ccncn3)n2C)c1)c1cccc(OCCCCCOCCCOCC(=O)N2CCN(c3ccc4c(c3)CN(C3CCC(=O)NC3=O)C4=O)CC2)c1 (stereo partly drawn) [Compound D181, N-((1R)-1-(3-((5-(3-(2-(4-(2-(2,6-dioxopiperidin-3-yl)-1-oxoisoindolin-5-yl)piperazin-1-yl)-2-oxoethoxy)propoxy)pentyl)oxy)phenyl)ethyl)-3-(((4-methyl-5-(pyrimidin-4-yl)-4H-1,2,4-triazol-3-yl)methyl)amino)benzamide]	11.8 nM	55%	78%	86%	> 30 µM	580 nM
C[C@@H](NC(=O)c1cccc(NCc2nnc(-c3ccncn3)n2C)c1)c1cccc(OCCCCCOCCCOCC(=O)Nc2cccc3c2CN(C2CCC(=O)NC2=O)C3=O)c1 (stereo partly drawn) [Compound D183, N-((1R)-1-(3-((5-(3-(2-((2-(2,6-dioxopiperidin-3-yl)-1-oxoisoindolin-4-yl)amino)-2-oxoethoxy)propoxy)pentyl)oxy)phenyl)ethyl)-3-(((4-methyl-5-(pyrimidin-4-yl)-4H-1,2,4-triazol-3-yl)methyl)amino)benzamide]	16.7 nM	82%	86.5%	94.6%	> 30 µM	110 nM
C[C@H](NC(=O)c1cccc(NCc2nnc(-c3ccncn3)n2C)c1)c1cccc(OCCCCCOCCCOCC(=O)Nc2cccc3c2CN(C2CCC(=O)NC2=O)C3=O)c1 (stereo partly drawn) [Compound D185, N-((1S)-1-(3-((5-(3-(2-((2-(2,6-dioxopiperidin-3-yl)-1-oxoisoindolin-4-yl)amino)-2-oxoethoxy)propoxy)pentyl)oxy)phenyl)ethyl)-3-(((4-methyl-5-(pyrimidin-4-yl)-4H-1,2,4-triazol-3-yl)methyl)amino)benzamide]	211 nM	1.79%	17.5%	19.2%	> 30 µM	> 30000 nM
C[C@@H](NC(=O)c1cccc(NCc2nnc(-c3ccncn3)n2C)c1)c1cccc(OCCCCCCOCCOCCOCCCCCC(=O)Nc2cccc3c2CN(C2CCC(=O)N(C)C2=O)C3=O)c1 (stereo partly drawn) [Compound D190]	12.7 nM	-22%	51%	53%	26.8 µM	1740 nM
